From publication PMC7450057, “Enhancing intracellular accumulation and target engagement of PROTACs with reversible covalent chemistry” (Nature Communications, 2020)
“And” between values parts separate entries of the source, which are not always exact repeats. Identical values can stand only once. “Also recorded” adds a separate entry of the source. Like-named read-outs stand apart in the source and are kept apart here.

Legend:
[1] = test system: MOLM-14 cells; assay: Quantitative multiplexed (TMT) proteomics of compound-treated cells; format: cell-based, Homo sapiens; conditions: 200 nM, 24 h
Experimental: For proteomic study of the cellular protein profile following BTK degradation, MOLM-14 cells were treated in duplicate with 200 nM of RC-1, RNC-1, IRC-1, or RC-1-Me for 24 h, and then the cells were collected and processed for proteomics analysis (Sanford Burnham Prebys Medical Discovery Institute, La Jolla, California).
For cell lysis and protein digestion, cells were lysed with vigorous shaking (20 Hz for 10 min at room temperature by Retsch MM301 instrument) in 0.5 mL of lysis buffer (8 M urea, 50 mM ammonium bicarbonate (ABC); plus Benzonase 24U/100 ml), and extracted proteins were centrifuged at 14,000 × g for 10 min to remove cellular debris. Supernatant protein concentration was determined using a bicinchoninic acid (BCA) protein assay. Following quantification, the proteins were digested in solution. First, protein disulfide bonds were reduced with 5 mM tris(2-carboxyethyl)phosphine (TCEP) at 30 °C for 60 min, alkylated (carbamidomethylated) with 15 mM iodoacetamide (IAA) in the dark at room temperature for 30 min. Urea was then diluted to 1 M urea using 50 mM ammonium bicarbonate, and proteins were subjected to overnight digestion with mass spec grade Trypsin/Lys-C mix. Following digestion, samples were acidified with formic acid (FA) and subsequently desalted using Waters Sep-Pak C18. Cartridges were sequentially conditioned with 100% acetonitrile (ACN) and 0.1% FA, samples were then loaded, washed with 0.1% FA, and peptides eluted with 60% ACN, 0.1% FA. Finally, the organic solvent was removed in a SpeedVac concentrator prior to LC-MS/MS analysis.
Prior to TMT labeling, sample peptide amount was quantified using a NanoDrop^TM spectrophotometer (ThermoFisher). Samples were labeled according to the table schematic shown below using our TMT protocol. Briefly, a normalized amount of peptides sample was resuspended in 200 mM HEPES pH 8, and then labeled with one of the TMT10-plex reagents for 1 h at room temperature. TMT labels/channels were as follows:
Reactions were quenched with 5% hydroxylamine solution. The 10 samples were then combined, dried down in a SpeedVac system, resuspended in 0.1% FA, and desalted as described above. After desalting, the organic solvent was removed in a SpeedVac concentrator.
Dried samples were reconstituted in 20 mM ammonium formate pH ~10, and fractionated by high pH reverse phase using a Waters Acquity CSH C18 2.1-µm 1 × 150 mm column mounted on an M-Class Ultra Performance Liquid Chromatography (UPLC) system (Waters corp., Milford, MA). […] A total of 36 fractions were collected and pooled in a non-contiguous manner into 18 total fractions: 1 + 19, 2 + 20, 3 + 21, 4 + 22, 5 + 23, 6 + 24, 7 + 25, 8 + 26, 9 + 27, 10 + 28, 11 + 29, 12 + 30, 13 + 31, 14 + 32, 15 + 33, 16 + 34, 17 + 35, and 18 + 36. Pooled fractions were dried to completeness in a SpeedVac concentrator.
Dried fractions were reconstituted with 2% ACN-0.1% FA and analyzed by LC-MS/MS using a nanoACQUITY system (Waters) coupled to an Orbitrap Fusion Lumos mass spectrometer (Thermo Fisher Scientific). […] The mass spectrometer was operated in positive data-dependent acquisition mode. MS1 spectra were measured in the Orbitrap with a resolution of 60,000 (AGC target: 4e5; maximum injection time: 50 ms; mass range: from 350 to 1500 m/z). The instrument was set to run in top speed mode with 3 s cycles for the survey and the MS/MS scans. After a survey scan, tandem MS was performed in the Ion Routing Multipole HCD-Cell on the most abundant precursors by isolating them in the quadrupole (Isolation window: 0.7 m/z; charge state: +2–7; collision energy: 35%). […] The dynamic exclusion was set to 20 s with a 10-ppm mass tolerance around the precursor and its isotopes.
For data analysis, all mass spectra were analyzed with MaxQuant software version 1.5.5.1. MS/MS spectra were searched against the Homo sapiens Uniprot protein sequence database (version January 2018) and GPM cRAP sequences (commonly known protein contaminants). […]

[2] = test system: MOLM-14 cells; assay: AlamarBlue cell viability assay, MOLM-14; conditions: for Cell viability, MOML-14: Supplementary Figure 7, replicates; for MOLM-14 Cell Viability%: Figure 2f, 5 replicates
Experimental: The IC50 was calculated using GraphPad Prism software with a four-parameter dose-response curve fit.

[3] = Homo sapiens, MOLM-14, 72 h, read-out: Cell viability IC50, MOLM-14 cells, 72 h, Alamar Blue

| IC50 [2, 3] [nM] | Structure (SMILES) | degradation of IMiD-dependent substrates IKZF1, ZFP91, ZNF692 [1] | kinases degraded (proteomics) [1] | Cell viability, MOML-14 ([2]; drug concentration 1.00E-05 M) | Cell viability, MOML-14 ([2]; drug concentration 1.60E-08 M) | Cell viability, MOML-14 ([2]; drug concentration 2.00E-06 M) | Cell viability, MOML-14 ([2]; drug concentration 3.20E-09 M) | Cell viability, MOML-14 ([2]; drug concentration 4.00E-07 M) | Cell viability, MOML-14 ([2]; drug concentration 6.40E-10 M) | Cell viability, MOML-14 ([2]; drug concentration 8.00E-08 M) | MOLM-14 Cell Viability% ([2]; 1.00E-05 M) | MOLM-14 Cell Viability% ([2]; 1.60E-08 M) | MOLM-14 Cell Viability% ([2]; 2.00E-06 M) | MOLM-14 Cell Viability% ([2]; 3.20E-09 M) | MOLM-14 Cell Viability% ([2]; 4.00E-07 M) | MOLM-14 Cell Viability% ([2]; 6.40E-10 M) | MOLM-14 Cell Viability% ([2]; 8.00E-08 M) | IC50 ([2]; read-out: Cell viability IC50, MOLM-14 cells, 72 h, Alamar Blue) [nM] |
| --- | --- | --- | --- | --- | --- | --- | --- | --- | --- | --- | --- | --- | --- | --- | --- | --- | --- | --- |
| 2700 | CN(CC=CC(=O)N1CCCC(n2nc(-c3ccc(Oc4ccccc4)cc3)c3c(N)ncnc32)C1)CCCNC(=O)CNc1cccc2c1C(=O)N(C1CCC(=O)NC1=O)C2=O (stereo not drawn) [IRC-1] | specifically degraded | 7 | 18.0378 and 23.8364 and 27.2416 and 22.4354 and 21.8906 | 95.6375 and 84.8576 and 100.21 and 79.6428 and 95.3845 | 77.6385 and 69.5439 and 88.1655 and 70.6919 and 85.8499 | 83.1063 and 84.2544 and 98.5173 and 96.2017 and 79.9735 | 95.365 and 106.398 and 86.1807 and 91.7653 and 81.4134 | 91.6096 and 88.3017 and 105.931 and 90.734 and 74.6225 | 76.0624 and 92.5825 and 94.7813 and 82.8144 and 77.7553 |  |  |  |  |  |  |  |  |
| 500 | CC(C)(C)C=C(C#N)C(=O)N1CCCC(n2nc(-c3ccc(Oc4ccccc4)cc3)c3c(N)ncnc32)C1 (stereo not drawn) [RC-Ctrl] |  |  | 7.067 and 3.271 and 5.661 and 1.305 and 2.339 | 100.163 and 86.7229 and 69.3512 and 65.5718 and 65.0973 | 19.6597 and 13.6262 and 19.5071 and 12.6093 and 12.5585 | 99.2136 and 96.6714 and 77.7744 and 79.5709 and 66.0125 | 73.5374 and 63.2161 and 57.9961 and 48.3526 and 44.7427 | 106.654 and 105.722 and 82.8418 and 81.5368 and 73.0798 | 93.8411 and 82.0283 and 73.1815 and 65.3176 and 60.962 |  |  |  |  |  |  |  |  |
| 210 | CN1C(=O)CCC(N2C(=O)c3cccc(NCC(=O)NCCCN(C)C(C)(C)C=C(C#N)C(=O)N4CCCC(n5nc(-c6ccc(Oc7ccccc7)cc6)c6c(N)ncnc65)C4)c3C2=O)C1=O (stereo not drawn) [RC-1-Me] |  | no degradation is observed | 5.925 and 2.684 and 5.158 and 0.5402 and 1.464 | 108.445 and 78.2274 and 85.8427 and 61.7071 and 70.0718 | 12.3031 and 8.922 and 10.0028 and 5.594 and 8.609 | 105.5 and 93.5975 and 67.3881 and 77.0075 and 77.9834 | 48.707 and 38.2511 and 45.3611 and 24.9024 and 42.2243 | 105.5 and 122.177 and 88.0908 and 73.4874 and 67.8761 | 81.0853 and 58.6749 and 68.6428 and 51.3383 and 65.994 |  |  |  |  |  |  |  |  |
| 4100 | CN(CCCNC(=O)CNc1cccc2c1C(=O)N(C1CCC(=O)NC1=O)C2=O)CCCC(=O)N1CCCC(n2nc(-c3ccc(Oc4ccccc4)cc3)c3c(N)ncnc32)C1 (stereo not drawn) [RNC-1] | specifically degraded | 7 |  |  |  |  |  |  |  | 22.564% and 21.8706% and 28.4317% and 19.6302% and 20.5903% | 88.2112% and 80.7255% and 82.3435% and 80.6899% and 90.8606% | 59.495% and 70.377% and 65.6472% and 60.4907% and 61.7354% | 88.958% and 75.6935% and 86.6821% and 75.5334% and 84.3883% | 78.8051% and 78.5206% and 78.325% and 79.1785% and 78.2717% | 75.0356% and 77.596% and 87.8023% and 83.7127% and 80.761% | 68.7056% and 84.1394% and 79.712% and 75.2134% and 77.276% |  |

| Structure (SMILES) | IC50 [2, 3] [nM] | degradation of IMiD-dependent substrates IKZF1, ZFP91, ZNF692 [1] | kinases degraded (proteomics) [1] | Cell viability, MOML-14 ([2]; drug concentration 1.00E-05 M) | Cell viability, MOML-14 ([2]; drug concentration 1.60E-08 M) | Cell viability, MOML-14 ([2]; drug concentration 2.00E-06 M) | Cell viability, MOML-14 ([2]; drug concentration 3.20E-09 M) | Cell viability, MOML-14 ([2]; drug concentration 4.00E-07 M) | Cell viability, MOML-14 ([2]; drug concentration 6.40E-10 M) | Cell viability, MOML-14 ([2]; drug concentration 8.00E-08 M) | MOLM-14 Cell Viability% ([2]; 1.00E-05 M) | MOLM-14 Cell Viability% ([2]; 1.60E-08 M) | MOLM-14 Cell Viability% ([2]; 2.00E-06 M) | MOLM-14 Cell Viability% ([2]; 3.20E-09 M) | MOLM-14 Cell Viability% ([2]; 4.00E-07 M) | MOLM-14 Cell Viability% ([2]; 6.40E-10 M) | MOLM-14 Cell Viability% ([2]; 8.00E-08 M) | IC50 ([2]; read-out: Cell viability IC50, MOLM-14 cells, 72 h, Alamar Blue) [nM] |
| --- | --- | --- | --- | --- | --- | --- | --- | --- | --- | --- | --- | --- | --- | --- | --- | --- | --- | --- |
| CN(CCCNC(=O)CNc1cccc2c1C(=O)N(C1CCC(=O)NC1=O)C2=O)C(C)(C)C=C(C#N)C(=O)N1CCC[C@@H](n2nc(-c3ccc(Oc4ccccc4)cc3)c3c(N)ncnc32)C1 (stereo partly drawn) [RC-1] | 300 | specifically degraded | only two kinases (BTK and CSK) can be degraded; also recorded: only degrades BTK and CSK |  |  |  |  |  |  |  | 9.063% and 7.786% and 9.631% and 4.44% and 5.17% | 88.4631% and 84.0227% and 77.0073% and 72.5061% and 64.8418% | 14.0511% and 10.5434% and 12.6318% and 8.942% and 10.7462% | 89.923% and 89.9432% and 89.2741% and 70.2555% and 64.2336% | 53.7916% and 40.7948% and 45.6813% and 36.6383% and 39.4972% | 94.6269% and 96.3301% and 81.3058% and 78.386% and 72.2831% | 69.5864% and 88.0779% and 68.3495% and 63.8078% and 82.5426% | 310 |
